In patent US20240118281A1, “ANTICANCER COMPOUNDS AND USES THEREOF” (University of Florida Research Foundation, Incorporated, priority 2021, published 2024):

Legend:
[1] = system: MDA-MB-468 cells; experiment: Cell viability (MTT) assay; type: cell-based; details: FIG. 1D
Protocol: MTT (3-(4,5-dimethylthiazol-2-yl)-2,5-diphenyltetrazolium bromide) (Biomatik, Wilmington, DE) assays were performed by plating 7,500 cells/well in 10% FBS/DMEM in a 96-well plate, followed by incubation at 37° C. for 24 h. Cells were then treated with vehicle or increasing concentrations of tcyDTDO, dMtcyDTDO, or dFtcyDTDO and incubated at 37° C. for 72 h. Cell media was subsequently removed from each well and MTT assays were initiated by incubating cells with 0.5 mg/ml MTT in PBS for 3 h, followed by removal of the MTT solution and addition of 100 µL of DMSO to each well for 30 min. Absorbance of the MTT formazan product was subsequently measured at 570 and 690 (reference) nm in a plate reader.

[2] = system: DR5; experiment: Disulfide bond-mediated oligomerization and levels, non-reducing immunoblot; type: cell-based
Source text: (§1) The BT20, BT474, BT549, MCF7, MDA-MB-231, MDA-MB-436, MDA-MB-468, HCC1143, HCC1500, HCC1569, HCC1937, HCC1954, Hs578t, and T47D cells lines were purchased from American Type Culture Collection (ATCC) (Manassas, VA). The HCI-001 cell line was derived from an ER-/PR-/HER2- patient-derived xenograft originally isolated from a patient as described previously (DeRose Y S, et al. Nat Med 2011; 17: 1514-1520). The HCI-001/LVM2 model was derived from the HCI-001 cell line by performing two rounds of selection for liver metastasis, as described previously (Wang M, et al. Cell Death Discovery 2019; 5: 153). Cell lines were grown in Dulbecco's Modified Eagle's Medium (GE Healthcare Life Sciences, Logan, UT) containing 10% fetal bovine serum (10% FBS—DMEM) in a humidified incubator with 5% CO2 at 37° C. Cell lysates were prepared as described previously (Law B K, et al. Mol Cell Biol. 2002; 22: 8184-8198). Immunoblot analysis was performed utilizing the following antibodies purchased from Cell Signaling Technology (Beverly, MA) [Akt, #4691; P-Akt[T308], #13038; ATF4, #11815; CHOP, #2895; Cleaved Caspase 8, #9496; DR4, #42533; DR5, #8074; EGFR, #4267; GRP78, #3177; HER3, #4754; PARP, #9532; PDIA1, #3501; XBP1s, #12782], from Santa Cruz Biotechnology (Santa Cruz, CA) [Actin, sc-47778; AGR2/3, sc-376653; AGR3, sc-390940; ERO1-a, sc-100805; and ERp44, sc-393687], or from Rockland Immunochemicals, Inc. (Limerick, PA), Streptavidin-Alkaline Phosphatase conjugated (SA-AP), S000-05.
(§2) To assess protein disulfide bond-mediated oligomerization, cells were treated with DDAs for 24 h in 10% FBS-DMEM. Cells were subsequently scraped directly into the media and pelleted by centrifugation. Cells were extracted directly into boiling 2×-SDS-Sample Buffer containing 100 mM NEM and boiled for 10 min. Samples were sonicated, followed by centrifugation for 20 min at room temperature. Samples were subsequently analyzed by SDS-PAGE and immunoblot.

[3] = system: GRP78; experiment: Endoplasmic reticulum stress (ERS) induction, immunoblot; type: cell-based; details: MDA-MB-468 cells, 24 h
Source text: as §1, §2

[4] = target: T1, ERp44 (Homo sapiens, UniProt Q9BS26); experiment: In vitro binding assay with recombinant purified ERp44; details: pre-incubation with a molar excess, FIG. 3D
T1 sequence (Q9BS26 30-406): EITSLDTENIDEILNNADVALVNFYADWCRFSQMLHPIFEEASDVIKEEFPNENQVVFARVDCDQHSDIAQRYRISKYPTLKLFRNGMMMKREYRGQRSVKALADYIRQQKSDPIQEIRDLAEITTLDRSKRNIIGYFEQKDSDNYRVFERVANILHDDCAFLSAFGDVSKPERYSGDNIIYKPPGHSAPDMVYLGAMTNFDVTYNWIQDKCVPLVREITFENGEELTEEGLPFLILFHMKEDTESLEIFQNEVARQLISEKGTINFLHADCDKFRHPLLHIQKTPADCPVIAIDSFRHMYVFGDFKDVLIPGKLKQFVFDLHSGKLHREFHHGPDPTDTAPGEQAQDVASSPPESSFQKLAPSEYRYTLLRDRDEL
Protocol: (§3) Purified His6-AGR2 or His6-AGR2 C81S, as prepared above, or His6-AGR2 (PRO-580) or His6-AGR3 (PRO-242) obtained from ProSpec (New Brunswick NJ) were incubated with or without varying concentrations of the unlabeled DDA competitors, tcyDTDO or dMtcyDTDO, and 30 μM Biotin-GlyPyrDTDO or Biotin-PyrDTDO in buffer (20 mM HEPES (pH 7.4), 1 mM EDTA, 1 mM EGTA, 5% Glycerol, 1 nM Microcystin, 1 mM Na3VO4, and 40 mM Na2H2P2O7) containing 1% Triton-X 100 for 30 min at 37° C. […] Therefore, the two probes were used interchangeably. Reactions were stopped by boiling the samples in 2×-SDS-Sample Buffer containing 100 mM NEM for 10 min. Biotin-DDA labeling of protein was verified by blotting with Streptavidin-Alkaline Phosphatase (Rockland Immunochemicals, Inc., Limerick, PA). ERp44 (PRO-547) and PDIA1 (ENZ-262) were obtained from ProSpec and used in experiments examining the binding of these proteins to Biotin-PyrDTDO.

[5] = target: PDIA1 (Homo sapiens, UniProt P07237); experiment: In vitro binding assay with recombinant purified PDIA1; details: pre-incubation with a molar excess, FIG. 3D
Protocol: as §3

[6] = system: Caspase 8; experiment: Caspase 8 cleavage/activation (CC8), immunoblot; type: cell-based; details: 24 h
Source text: The BT20, BT474, BT549, MCF7, MDA-MB-231, MDA-MB-436, MDA-MB-468, HCC1143, HCC1500, HCC1569, HCC1937, HCC1954, Hs578t, and T47D cells lines were purchased from American Type Culture Collection (ATCC) (Manassas, VA). The HCI-001 cell line was derived from an ER-/PR-/HER2- patient-derived xenograft originally isolated from a patient as described previously (DeRose Y S, et al. Nat Med 2011; 17: 1514-1520). The HCI-001/LVM2 model was derived from the HCI-001 cell line by performing two rounds of selection for liver metastasis, as described previously (Wang M, et al. Cell Death Discovery 2019; 5: 153). Cell lines were grown in Dulbecco's Modified Eagle's Medium (GE Healthcare Life Sciences, Logan, UT) containing 10% fetal bovine serum (10% FBS—DMEM) in a humidified incubator with 5% CO2 at 37° C. Cell lysates were prepared as described previously (Law B K, et al. Mol Cell Biol. 2002; 22: 8184-8198). […]
To assess protein disulfide bond-mediated oligomerization, cells were treated with DDAs for 24 h in 10% FBS-DMEM. […] Samples were subsequently analyzed by SDS-PAGE and immunoblot.

[7] = MDA-MB-468 cells, 24 h, compared with tcyDTDO, FIG. 1E left

PDIA1, sequence (P07237 18-508): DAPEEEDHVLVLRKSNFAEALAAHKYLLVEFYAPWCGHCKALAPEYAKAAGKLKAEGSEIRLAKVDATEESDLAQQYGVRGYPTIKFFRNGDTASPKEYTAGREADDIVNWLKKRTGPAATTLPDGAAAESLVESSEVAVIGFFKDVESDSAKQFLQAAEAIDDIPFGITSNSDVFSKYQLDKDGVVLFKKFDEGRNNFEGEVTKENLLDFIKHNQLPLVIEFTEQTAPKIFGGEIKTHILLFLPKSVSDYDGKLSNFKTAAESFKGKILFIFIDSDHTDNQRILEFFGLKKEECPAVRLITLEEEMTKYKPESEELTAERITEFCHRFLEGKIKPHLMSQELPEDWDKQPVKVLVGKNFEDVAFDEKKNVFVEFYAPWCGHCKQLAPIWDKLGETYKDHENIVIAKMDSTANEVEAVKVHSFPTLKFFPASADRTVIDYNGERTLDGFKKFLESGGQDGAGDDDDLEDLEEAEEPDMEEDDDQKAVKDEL

Structure (SMILES): CO[C@H]1C[C@@H]2CS(=O)(=O)SC[C@H]2C[C@@H]1OC [dMtcyDTDO, dimethoxy-tcyDTDO]
- Potency in cell viability assays relative to tcyDTDO [1]: approximately two-fold greater potency than tcyDTDO
- Levels and oligomerization of DR5, densitometry ([2]; 0, 1.25, 2.5, 5 uM, FIG. 1F): increases the levels of both oligomeric and monomeric forms of DR5
- Concentration at which oligomerization of DR5 was observed ([2]; MDA-MB-468 cells, 24 h, FIG. 1E right): 1.25 µM
- DR4/5 oligomerization at the same concentration (DR5) [2, 7]: more DR4/5 oligomerization
- DR5 levels at the same concentration [2, 7]: higher DR5 levels
- Concentration at which induction of ERS (GRP78 elevation) was detected ([3]; FIG. 1E right): 625 nM
- ERS at the same concentration ([3]; compared with tcyDTDO, FIG. 1E left): greater ERS
- Block of Biotin-PyrDTDO biotinylation of ERp44 [4]: biotinylation was blocked
- Block of Biotin-PyrDTDO biotinylation of PDIA1 [5]: biotinylation was blocked
- Induction of Caspase 8 cleavage/activation (CC8) in ERp44 knockdown versus vector control cells ([6]; MDA-MB-468 cells, 2.5 or 5 μM, FIG. 5D): increased dMtcyDTDO induction of Caspase 8 cleavage/activation
- Caspase 8 cleavage in cells expressing C119S or C160S DR5 mutants ([6]; MDA-MB-468 stable cell lines, FIG. 7E): modestly increased Caspase 8 cleavage
